Experiments:
Assay in all cases: radiometric filter-binding kinase assay
DYRK3 (human) = DYRK3 (human) (UniProt O43781)
HIPK3 (human) = HIPK3 (human) (UniProt Q9H422)
MAPK14 (human) = MAPK14 (human) (UniProt Q16539)
DYRK1A (human) = DYRK1A (human) (UniProt Q13627)
EEF2K (human) = EEF2K (human) (UniProt O00418)
EPHA2 (human) = EPHA2 (human) (UniProt P29317)
NEK6 (human) = NEK6 (human) (UniProt Q9HC98)
MAPK13 (human) = MAPK13 (human) (UniProt O15264)
MAPK11 (human) = MAPK11 (human) (UniProt Q15759)
MAPK11 (human), sequence (Q15759 whole entry, looked up): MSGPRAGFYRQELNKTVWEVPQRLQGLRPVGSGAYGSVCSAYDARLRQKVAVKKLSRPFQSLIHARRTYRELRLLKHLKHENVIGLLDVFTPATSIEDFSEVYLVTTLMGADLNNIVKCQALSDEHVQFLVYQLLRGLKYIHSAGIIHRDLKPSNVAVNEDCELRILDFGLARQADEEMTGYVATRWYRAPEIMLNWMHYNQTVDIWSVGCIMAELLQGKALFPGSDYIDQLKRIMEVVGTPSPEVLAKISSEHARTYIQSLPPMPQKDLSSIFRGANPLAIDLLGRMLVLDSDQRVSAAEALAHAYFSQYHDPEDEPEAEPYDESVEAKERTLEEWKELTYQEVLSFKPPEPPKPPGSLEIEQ

MARK1 (human) = MARK1 (human) (UniProt Q9P0L2)
BTK (human) = BTK (human) (UniProt Q06187)
HIPK1 (human) = HIPK1 (human) (UniProt Q86Z02)
HIPK2 (human) = HIPK2 (human) (UniProt Q9H2X6)
MAP2K6 (human) = MAP2K6 (human) (UniProt P52564)
CaMK1 (human) = CaMK1 (human) (UniProt Q14012)
CaMK1 (human), sequence (Q14012 whole entry, looked up): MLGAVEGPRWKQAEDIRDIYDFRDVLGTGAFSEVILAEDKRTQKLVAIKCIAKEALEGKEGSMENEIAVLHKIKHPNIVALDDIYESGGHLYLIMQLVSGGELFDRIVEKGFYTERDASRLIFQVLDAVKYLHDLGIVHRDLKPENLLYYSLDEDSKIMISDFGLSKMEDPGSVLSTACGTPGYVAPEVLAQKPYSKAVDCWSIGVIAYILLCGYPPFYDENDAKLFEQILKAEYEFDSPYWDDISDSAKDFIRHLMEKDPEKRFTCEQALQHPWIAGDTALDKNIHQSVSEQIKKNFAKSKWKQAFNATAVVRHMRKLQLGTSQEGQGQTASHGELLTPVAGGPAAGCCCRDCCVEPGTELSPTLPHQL

ROCK2 (rat) = settings: accession and sequence are those of the human protein
DAPK1 (human) = DAPK1 (human) (UniProt P53355)
DAPK1 (human), sequence (P53355 whole entry, looked up): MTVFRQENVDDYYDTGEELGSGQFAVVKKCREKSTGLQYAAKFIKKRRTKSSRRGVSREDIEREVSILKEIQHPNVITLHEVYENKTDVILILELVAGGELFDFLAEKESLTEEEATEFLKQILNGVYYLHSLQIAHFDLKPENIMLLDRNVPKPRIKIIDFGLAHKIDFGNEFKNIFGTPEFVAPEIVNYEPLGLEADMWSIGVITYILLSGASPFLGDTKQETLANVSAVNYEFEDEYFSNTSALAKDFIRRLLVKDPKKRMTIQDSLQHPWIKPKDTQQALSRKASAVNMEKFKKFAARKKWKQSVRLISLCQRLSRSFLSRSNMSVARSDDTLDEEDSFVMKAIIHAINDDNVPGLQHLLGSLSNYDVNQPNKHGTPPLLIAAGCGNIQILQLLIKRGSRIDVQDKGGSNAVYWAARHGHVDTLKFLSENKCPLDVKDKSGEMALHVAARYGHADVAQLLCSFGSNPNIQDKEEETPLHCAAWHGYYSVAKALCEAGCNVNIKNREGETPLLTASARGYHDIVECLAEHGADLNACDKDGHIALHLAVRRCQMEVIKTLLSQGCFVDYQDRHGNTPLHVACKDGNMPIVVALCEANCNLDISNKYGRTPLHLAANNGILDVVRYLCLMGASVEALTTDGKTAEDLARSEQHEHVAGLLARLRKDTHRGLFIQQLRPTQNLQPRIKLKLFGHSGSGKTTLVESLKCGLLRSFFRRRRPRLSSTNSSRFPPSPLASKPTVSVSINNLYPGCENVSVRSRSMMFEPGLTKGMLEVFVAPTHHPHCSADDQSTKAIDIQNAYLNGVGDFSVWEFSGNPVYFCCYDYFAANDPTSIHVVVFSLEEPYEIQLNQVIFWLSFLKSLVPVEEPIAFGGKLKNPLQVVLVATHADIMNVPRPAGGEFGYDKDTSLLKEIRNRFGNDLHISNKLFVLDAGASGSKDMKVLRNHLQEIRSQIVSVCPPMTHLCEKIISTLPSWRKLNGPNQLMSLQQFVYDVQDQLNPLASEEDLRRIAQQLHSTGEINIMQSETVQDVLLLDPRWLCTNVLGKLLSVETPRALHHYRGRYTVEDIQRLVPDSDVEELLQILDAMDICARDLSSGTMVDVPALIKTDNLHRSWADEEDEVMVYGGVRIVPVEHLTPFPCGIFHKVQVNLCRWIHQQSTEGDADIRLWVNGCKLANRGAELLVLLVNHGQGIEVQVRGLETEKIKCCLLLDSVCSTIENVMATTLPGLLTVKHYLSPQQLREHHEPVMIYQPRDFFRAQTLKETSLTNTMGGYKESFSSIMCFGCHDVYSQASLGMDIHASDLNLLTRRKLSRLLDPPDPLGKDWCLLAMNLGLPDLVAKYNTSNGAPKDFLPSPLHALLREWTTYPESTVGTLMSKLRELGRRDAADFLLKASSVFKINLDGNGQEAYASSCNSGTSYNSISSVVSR

MAPKAPK5 (human) = MAPKAPK5 (human) (UniProt Q8IW41)
EPHB1 (human) = EPHB1 (human) (UniProt P54762)
EPHB3 (human) = EPHB3 (human) (UniProt P54753)
NUAK1 (human) = NUAK1 (human) (UniProt O60285)
TAOK1 (human) = TAOK1 (human) (UniProt Q7L7X3)
MARK3 (human) = MARK3 (human) (UniProt P27448)
PAK6 (human) = PAK6 (human) (UniProt Q9NQU5)
DYRK2 (human) = DYRK2 (human) (UniProt Q92630)
PAK4 (human) = PAK4 (human) (UniProt O96013)
PAK7 (human) = PAK7 (human) (UniProt Q9P286)
CSNK2A1 (human) = CSNK2A1 (human) (UniProt P68400)
CSNK2A1 (human), sequence (P68400 whole entry, looked up): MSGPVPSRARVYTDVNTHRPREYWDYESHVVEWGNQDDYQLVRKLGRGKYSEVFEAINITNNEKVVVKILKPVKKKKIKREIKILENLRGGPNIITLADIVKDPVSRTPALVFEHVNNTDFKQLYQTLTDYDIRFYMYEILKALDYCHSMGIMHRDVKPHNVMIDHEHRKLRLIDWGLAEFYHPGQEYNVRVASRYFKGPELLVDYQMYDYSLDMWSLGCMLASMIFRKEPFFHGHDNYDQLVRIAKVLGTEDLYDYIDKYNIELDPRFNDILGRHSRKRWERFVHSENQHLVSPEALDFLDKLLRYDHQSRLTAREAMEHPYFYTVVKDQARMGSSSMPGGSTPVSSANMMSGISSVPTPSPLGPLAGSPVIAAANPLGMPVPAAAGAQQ

IKBKE (human) = IKBKE (human) (UniProt Q14164)
RPS6KA5 KD1 KD2 (human) = RPS6KA5 KD1 KD2 (human) (UniProt O75582)
MST4 (human) = MST4 (human) (UniProt Q9P289)
MAP3K9 (human) = MAP3K9 (human) (UniProt P80192)
[1] = system: AKT1 (human), P31749 [S473D]
ERBB4 (human) = ERBB4 (human) (UniProt Q15303)
LCK (mouse) = settings: accession and sequence are those of the human protein
PRKCZ (human) = PRKCZ (human) (UniProt Q05513)

HIPK3 (human), sequence (Q9H422 whole entry, looked up): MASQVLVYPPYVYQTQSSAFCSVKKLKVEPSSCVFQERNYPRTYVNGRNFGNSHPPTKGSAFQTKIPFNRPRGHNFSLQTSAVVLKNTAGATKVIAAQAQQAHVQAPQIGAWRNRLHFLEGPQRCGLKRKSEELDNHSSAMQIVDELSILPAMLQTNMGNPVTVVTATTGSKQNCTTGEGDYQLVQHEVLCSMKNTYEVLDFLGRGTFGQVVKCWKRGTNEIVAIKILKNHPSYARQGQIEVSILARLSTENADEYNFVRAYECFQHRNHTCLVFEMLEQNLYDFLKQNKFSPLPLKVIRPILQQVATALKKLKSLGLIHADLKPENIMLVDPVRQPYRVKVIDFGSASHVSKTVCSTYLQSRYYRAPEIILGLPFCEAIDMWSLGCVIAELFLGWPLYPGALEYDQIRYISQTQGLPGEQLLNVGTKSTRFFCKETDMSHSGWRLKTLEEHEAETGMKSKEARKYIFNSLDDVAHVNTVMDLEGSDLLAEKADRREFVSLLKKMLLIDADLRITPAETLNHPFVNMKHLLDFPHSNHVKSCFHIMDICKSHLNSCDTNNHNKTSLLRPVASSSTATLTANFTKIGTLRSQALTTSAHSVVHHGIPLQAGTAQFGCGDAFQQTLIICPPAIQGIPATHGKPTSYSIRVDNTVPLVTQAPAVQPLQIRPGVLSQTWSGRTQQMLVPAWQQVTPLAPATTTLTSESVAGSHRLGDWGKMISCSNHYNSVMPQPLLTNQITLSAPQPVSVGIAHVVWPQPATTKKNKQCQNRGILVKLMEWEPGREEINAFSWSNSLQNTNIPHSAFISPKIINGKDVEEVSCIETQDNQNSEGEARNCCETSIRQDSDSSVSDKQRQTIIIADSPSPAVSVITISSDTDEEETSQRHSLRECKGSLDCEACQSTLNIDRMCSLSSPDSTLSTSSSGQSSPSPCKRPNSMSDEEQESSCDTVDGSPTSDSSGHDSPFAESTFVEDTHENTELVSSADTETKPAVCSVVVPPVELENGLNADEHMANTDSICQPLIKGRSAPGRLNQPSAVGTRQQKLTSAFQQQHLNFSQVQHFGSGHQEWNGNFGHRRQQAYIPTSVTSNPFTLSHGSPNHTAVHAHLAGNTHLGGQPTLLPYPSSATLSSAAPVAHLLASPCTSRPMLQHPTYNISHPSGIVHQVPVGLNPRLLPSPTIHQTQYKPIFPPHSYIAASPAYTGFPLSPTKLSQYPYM
DYRK3 (human), sequence (O43781 whole entry, looked up): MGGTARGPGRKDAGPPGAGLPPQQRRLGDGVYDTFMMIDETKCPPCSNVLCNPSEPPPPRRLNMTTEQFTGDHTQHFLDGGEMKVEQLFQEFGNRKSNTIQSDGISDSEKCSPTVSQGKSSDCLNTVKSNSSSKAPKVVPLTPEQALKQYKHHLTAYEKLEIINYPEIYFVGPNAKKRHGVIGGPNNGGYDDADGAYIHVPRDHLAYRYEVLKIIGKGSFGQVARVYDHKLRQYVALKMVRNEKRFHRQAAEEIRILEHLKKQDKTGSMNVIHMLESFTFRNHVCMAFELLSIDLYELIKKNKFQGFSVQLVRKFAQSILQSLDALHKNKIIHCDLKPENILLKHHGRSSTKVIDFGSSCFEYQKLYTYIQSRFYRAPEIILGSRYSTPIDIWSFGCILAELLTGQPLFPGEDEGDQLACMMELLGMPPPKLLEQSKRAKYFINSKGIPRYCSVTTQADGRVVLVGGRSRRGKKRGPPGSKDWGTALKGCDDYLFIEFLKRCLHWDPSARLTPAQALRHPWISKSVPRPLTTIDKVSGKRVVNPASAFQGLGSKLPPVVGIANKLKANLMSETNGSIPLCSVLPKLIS
NEK6 (human), sequence (Q9HC98 whole entry, looked up): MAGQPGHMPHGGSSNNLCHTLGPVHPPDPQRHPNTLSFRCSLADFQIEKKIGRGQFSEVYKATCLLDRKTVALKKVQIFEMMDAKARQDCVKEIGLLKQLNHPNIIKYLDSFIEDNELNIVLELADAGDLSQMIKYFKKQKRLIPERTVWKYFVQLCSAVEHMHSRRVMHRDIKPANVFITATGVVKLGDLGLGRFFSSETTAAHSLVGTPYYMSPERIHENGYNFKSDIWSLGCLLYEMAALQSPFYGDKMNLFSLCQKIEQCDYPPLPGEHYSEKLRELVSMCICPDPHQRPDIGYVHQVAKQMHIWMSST
MAPK14 (human), sequence (Q16539 whole entry, looked up): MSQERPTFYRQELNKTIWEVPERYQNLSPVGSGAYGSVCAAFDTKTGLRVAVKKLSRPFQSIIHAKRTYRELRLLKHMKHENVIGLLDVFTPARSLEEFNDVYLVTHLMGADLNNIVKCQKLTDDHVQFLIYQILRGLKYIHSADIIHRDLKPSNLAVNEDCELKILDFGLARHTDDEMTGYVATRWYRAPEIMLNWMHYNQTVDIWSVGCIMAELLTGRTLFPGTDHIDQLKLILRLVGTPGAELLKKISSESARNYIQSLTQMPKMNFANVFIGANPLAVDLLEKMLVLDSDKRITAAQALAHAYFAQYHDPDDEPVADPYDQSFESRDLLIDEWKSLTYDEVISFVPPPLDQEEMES

Molecule COc1cc(O)c2c(c1)[C@H]1OC1C[C@H](O)[C@H](O)C(=O)/C=C\C[C@H](C)OC2=O (stereo partly drawn) has a residual activity (DYRK3 (human); compound 0.01 µM) of 113%, a residual activity (DYRK3 (human); compound 0.1 µM) of 109% and a residual activity (DYRK3 (human); compound 1.0 µM) of 124%. For the same molecule, the residual activity (HIPK3 (human); compound 0.01 µM) was 104%, the residual activity (HIPK3 (human); compound 0.1 µM) was 100% and the residual activity (HIPK3 (human); compound 1.0 µM) was 102%. It also gave a residual activity (MAPK14 (human); compound 0.01 µM) of 108%, a residual activity (MAPK14 (human); compound 0.1 µM) of 105% and a residual activity (MAPK14 (human); compound 1.0 µM) of 105%. For the same molecule, the residual activity (DYRK1A (human); compound 0.01 µM) was 98%, the residual activity (DYRK1A (human); compound 0.1 µM) was 105% and the residual activity (DYRK1A (human); compound 1.0 µM) was 101%. It also gave a residual activity (EEF2K (human); compound 0.01 µM) of 91%, a residual activity (EEF2K (human); compound 0.1 µM) of 103% and a residual activity (EPHA2 (human); compound 0.01 µM) of 97%. It also gave a residual activity (EPHA2 (human); compound 0.1 µM) of 98%, a residual activity (EPHA2 (human); compound 1.0 µM) of 56% and a residual activity (NEK6 (human); compound 0.01 µM) of 97%. It also gave a residual activity (NEK6 (human); compound 0.1 µM) of 90%, a residual activity (NEK6 (human); compound 1.0 µM) of 98% and a residual activity (MAPK13 (human); compound 0.01 µM) of 101%. The residual activity (MAPK13 (human); compound 0.1 µM) was 100%, the residual activity (MAPK13 (human); compound 1.0 µM) was 108% and the residual activity (MAPK11 (human); compound 0.01 µM) was 88%. For the same molecule, the residual activity (MAPK11 (human); compound 0.1 µM) was 93%, the residual activity (MAPK11 (human); compound 1.0 µM) was 98% and the residual activity (MARK1 (human); compound 0.01 µM) was 101%. The residual activity (MARK1 (human); compound 0.1 µM) was 99%, the residual activity (MARK1 (human); compound 1.0 µM) was 101% and the residual activity (BTK (human); compound 0.01 µM) was 105%. It also gave a residual activity (BTK (human); compound 0.1 µM) of 115%, a residual activity (BTK (human); compound 1.0 µM) of 109% and a residual activity (HIPK1 (human); compound 0.01 µM) of 111%. The residual activity (HIPK1 (human); compound 0.1 µM) was 99%, the residual activity (HIPK1 (human); compound 1.0 µM) was 95% and the residual activity (HIPK2 (human); compound 0.01 µM) was 96%. It also gave a residual activity (HIPK2 (human); compound 0.1 µM) of 86%, a residual activity (HIPK2 (human); compound 1.0 µM) of 72% and a residual activity (MAP2K6 (human); compound 0.01 µM) of 59%. It also gave a residual activity (MAP2K6 (human); compound 0.1 µM) of 21%, a residual activity (MAP2K6 (human); compound 1.0 µM) of 20% and a residual activity (CaMK1 (human); compound 0.01 µM) of 96%. For the same molecule, the residual activity (CaMK1 (human); compound 0.1 µM) was 96%, the residual activity (CaMK1 (human); compound 1.0 µM) was 112% and the residual activity (ROCK2 (rat); compound 0.01 µM) was 91%. For the same molecule, the residual activity (ROCK2 (rat); compound 0.1 µM) was 94%, the residual activity (ROCK2 (rat); compound 1.0 µM) was 99% and the residual activity (DAPK1 (human); compound 0.01 µM) was 82%. It also gave a residual activity (DAPK1 (human); compound 0.1 µM) of 108%, a residual activity (DAPK1 (human); compound 1.0 µM) of 96% and a residual activity (MAPKAPK5 (human); compound 0.01 µM) of 74%. The residual activity (MAPKAPK5 (human); compound 0.1 µM) was 72%, the residual activity (MAPKAPK5 (human); compound 1.0 µM) was 32% and the residual activity (EPHB1 (human); compound 0.01 µM) was 97%. The residual activity (EPHB1 (human); compound 0.1 µM) was 110%, the residual activity (EPHB1 (human); compound 1.0 µM) was 84% and the residual activity (EPHB3 (human); compound 0.01 µM) was 118%. For the same molecule, the residual activity (EPHB3 (human); compound 0.1 µM) was 130%, the residual activity (EPHB3 (human); compound 1.0 µM) was 92% and the residual activity (NUAK1 (human); compound 0.01 µM) was 93%. For the same molecule, the residual activity (NUAK1 (human); compound 0.1 µM) was 99%, the residual activity (NUAK1 (human); compound 1.0 µM) was 105% and the residual activity (TAOK1 (human); compound 0.01 µM) was 106%. The residual activity (TAOK1 (human); compound 0.1 µM) was 101%, the residual activity (TAOK1 (human); compound 1.0 µM) was 100% and the residual activity (MARK3 (human); compound 0.01 µM) was 98%. It also gave a residual activity (MARK3 (human); compound 0.1 µM) of 102%, a residual activity (MARK3 (human); compound 1.0 µM) of 95% and a residual activity (PAK6 (human); compound 0.01 µM) of 92%. The residual activity (PAK6 (human); compound 0.1 µM) was 95%, the residual activity (PAK6 (human); compound 1.0 µM) was 95% and the residual activity (DYRK2 (human); compound 0.01 µM) was 109%. For the same molecule, the residual activity (DYRK2 (human); compound 0.1 µM) was 105%, the residual activity (PAK4 (human); compound 0.01 µM) was 81% and the residual activity (PAK4 (human); compound 0.1 µM) was 100%. The residual activity (PAK7 (human); compound 0.01 µM) was 102%, the residual activity (PAK7 (human); compound 0.1 µM) was 115% and the residual activity (CSNK2A1 (human); compound 0.01 µM) was 123%. The residual activity (CSNK2A1 (human); compound 0.1 µM) was 121%, the residual activity (CSNK2A1 (human); compound 1.0 µM) was 133% and the residual activity (IKBKE (human); compound 0.01 µM) was 108%. For the same molecule, the residual activity (IKBKE (human); compound 0.1 µM) was 105%, the residual activity (IKBKE (human); compound 1.0 µM) was 92% and the residual activity (RPS6KA5 KD1 KD2 (human); compound 0.01 µM) was 108%. For the same molecule, the residual activity (RPS6KA5 KD1 KD2 (human); compound 0.1 µM) was 104%, the residual activity (RPS6KA5 KD1 KD2 (human); compound 1.0 µM) was 104% and the residual activity (MST4 (human); compound 0.01 µM) was 96%. The residual activity (MST4 (human); compound 0.1 µM) was 106%, the residual activity (MST4 (human); compound 1.0 µM) was 86% and the residual activity (MAP3K9 (human); compound 0.01 µM) was 112%. The residual activity (MAP3K9 (human); compound 0.1 µM) was 117%, the residual activity (MAP3K9 (human); compound 1.0 µM) was 101% and the residual activity ([1]; compound 0.01 µM) was 109%. It also gave a residual activity ([1]; compound 0.1 µM) of 124%, a residual activity ([1]; compound 1.0 µM) of 107% and a residual activity (ERBB4 (human); compound 0.1 µM) of 104%. The residual activity (ERBB4 (human); compound 1.0 µM) was 105%, the residual activity (LCK (mouse); compound 0.01 µM) was 79% and the residual activity (LCK (mouse); compound 0.1 µM) was 93%. It also gave a residual activity (LCK (mouse); compound 1.0 µM) of 69%, a residual activity (PRKCZ (human); compound 0.01 µM) of 97% and a residual activity (PRKCZ (human); compound 0.1 µM) of 78%. The residual activity (PRKCZ (human); compound 1.0 µM) was 105%.
